Reference: BindingDB's records for doi:10.1111/j.1747-0285.2010.00957.x (Pfizer, 2010)

Legend:
[1] = molecular target: T1, Phosphopantetheine adenylyltransferase (Escherichia coli (strain K12), UniProt P0A6I6); assay: High-Throughput Screening Assay (Forward Direction Assay)
Procedure: (§1) PPAT screening assay (forward-direction assay) were performed in clear 384 well plates containing in each well either 1-uL DMSO, 1 uL of variable concentrations of test compounds solvated in DMSO or 1 uL of a 100-uM solution of a dipeptide inhibitor of PPAT in DMSO which serves as the fully inhibit control.

[2] = molecular target: Phosphopantetheine adenylyltransferase (Enterococcus faecalis (strain ATCC 700802 / V583), UniProt Q831P9); assay: as above
Phosphopantetheine adenylyltransferase (Enterococcus faecalis (strain ATCC 700802 / V583), UniProt Q831P9), sequence (Q831P9 whole entry): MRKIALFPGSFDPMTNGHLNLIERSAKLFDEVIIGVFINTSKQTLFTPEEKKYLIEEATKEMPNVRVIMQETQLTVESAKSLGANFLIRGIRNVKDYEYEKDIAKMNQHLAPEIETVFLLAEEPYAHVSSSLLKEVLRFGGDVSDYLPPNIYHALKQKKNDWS
Procedure: as §1

[3] = molecular target: T1, Phosphopantetheine adenylyltransferase; assay: Reverse PPAT Assay
Procedure: The reverse assay was performed in polyproplene 96-well plates containing in each well either 1 uL DMSO, 1 µL of variable concentrations of test compounds solvated in DMSO or 1 µL of a 100-uM solution of a dipeptide inhibitor of PPAT in DMSO which serves as control.

T1 sequence (P0A6I6 whole entry): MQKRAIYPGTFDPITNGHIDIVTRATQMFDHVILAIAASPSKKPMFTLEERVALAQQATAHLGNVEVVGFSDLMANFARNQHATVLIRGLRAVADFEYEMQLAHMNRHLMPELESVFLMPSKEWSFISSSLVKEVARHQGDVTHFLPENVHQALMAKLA

Structure (SMILES) | IC50 [1] | IC50 [2] | IC50 [3]
Cc1c(C(=O)O)[nH]n2c(=O)c3ccc(Cl)cc3nc12 [3-substituted pyrazoloquinolone, 24] | 106 µM | > 167 µM | 
Cn1c2ccc(Cl)cc2c(=O)n2nc(C(=O)O)cc12 [4-substituted pyrazoloquinolone, 18] | 160 µM |  | 
COc1ccc2nc3cc(C(=O)O)[nH]n3c(=O)c2c1 [7-substituted pyrazoloquinolone, 17] | > 150 µM | > 167 µM | 
O=C(O)c1cc2nc3ccccc3c(=O)n2[nH]1 [7-substituted pyrazoloquinolone, 6] | 253 µM | > 167 µM | > 230 µM
C[S+]([O-])c1ccc2nc3cc(C(=O)O)[nH]n3c(=O)c2c1 (centres undefined) [7-substituted pyrazoloquinolone, 13] | 166 µM | 20 µM | 
Nc1ccc2c(=O)n3[nH]c(C(=O)O)cc3nc2c1 [6-substituted pyrazoloquinolone, 21] | 121 µM | 100 µM | 
O=C(O)c1cc2nc3cc(Br)ccc3c(=O)n2[nH]1 [6-substituted pyrazoloquinolone, 22] | 124 µM | > 167 µM | > 125 µM
O=C(O)c1cc2nc3cc(C(F)(F)F)ccc3c(=O)n2[nH]1 [6-substituted pyrazoloquinolone, 20] | 54 µM | > 167 µM | 200 µM
O=C(O)c1cc2nc3ccc(F)cc3c(=O)n2[nH]1 [7-substituted pyrazoloquinolone, 9] | 103 µM | > 167 µM | 
Cc1ccc2nc3cc(C(=O)O)[nH]n3c(=O)c2c1 [7-substituted pyrazoloquinolone, 7] | 244 µM |  | 
CS(=O)(=O)c1ccc2nc3cc(C(=O)O)[nH]n3c(=O)c2c1 [7-substituted pyrazoloquinolone, 14] | 92 µM |  | 

These reach a lower IC50 [1]. Values come first.

IC50 [1] | IC50 [2] | IC50 [3] | Structure (SMILES)
17 µM | > 75 µM |  | O=C(O)c1cc2nc3ccc(Cl)cc3c(=O)n2[nH]1 [7-substituted pyrazoloquinolone, 8]
5.1 µM | > 137 µM | 11 µM | O=C(O)c1cc2nc3ccc(I)cc3c(=O)n2[nH]1 [7-substituted pyrazoloquinolone, 11]
13 µM | > 65 µM | 8.8 µM | CSc1ccc2nc3cc(C(=O)O)[nH]n3c(=O)c2c1 [7-substituted pyrazoloquinolone, 12]
49 µM | 157 µM | 7.1 µM | CN(C)c1ccc2nc3cc(C(=O)O)[nH]n3c(=O)c2c1 [7-substituted pyrazoloquinolone, 16]
14 µM | 249 µM | 5 µM | CC(C)Sc1ccc2nc3cc(C(=O)O)[nH]n3c(=O)c2c1 [7-substituted pyrazoloquinolone, 15]
15 µM | > 167 µM |  | Cc1ccc2c(=O)n3[nH]c(C(=O)O)cc3nc2c1 [6-substituted pyrazoloquinolone, 19]
49 µM | 212 µM | 93 µM | O=C(O)c1cc2nc3cc(Cl)ccc3c(=O)n2[nH]1 [6-substituted pyrazoloquinolone, 23]
6.2 µM | 209 µM | 22 µM | O=C(O)c1cc2nc3ccc(Br)cc3c(=O)n2[nH]1 [7-substituted pyrazoloquinolone, 10]
